In assay [1] the test system is tonic extensor seizures elicited by maximal electroshock. Put plainly: electroshock induced convulsion inhibition assay (E.S.). In kind it is in vivo, Cox standard strain albino male mice. The note with it: Mus musculus; oral dose (gavage), mice, 0.1 second 50 milliampere corneal electroshock; at the time after dosing providing an optimal response. From the text: The compounds of Formula I are anticonvulsant agents with a high therpeutic ratio and long half-life and are therefore useful in the treatment and prevention of convulsions in mammals. […] The compounds are effective against tonic extensor seizures elicited by maximal electroshock and should therefore be useful for treating generalized tonic-clonic ("grand mal"), cortical focal, complex partial (temporal lobe epilepsy), simple partial (focal moor), and post-traumatic seizures in humans. […] In the electroshock induced convulsion inhibition assay (E.S.), the compound to be tested was suspended in acacia and administered by gavage to each of ten Cox standard strain albino male mice (18-24 g) at the dose level being investigated. […] The animals were examined and evaluated immediately after the electroshock for the occurrence of clonic, flexor tonic, or extensor tonic convulsions, or death and the ED50 was determined for each compound as the dose which inhibited the occurrence of extensor tonic convulsions in one half of the animals immediately after the electroshock. For comparison, 18 milliamperes was usually sufficient to produce extensor tonic convulsions in about half of the control animals; at 50 milliamperes, almost all control animals (receiving vehicle only) […]. The test results summarized in Table I are reported as the ED50 values at the time interval found to provide an optimal response after dosing.

Another assay relates to seizures. The note with it: man; cited from earlier work.

Structures can show the parent of a compound that is named as a salt.

The source of these data is US4684748A, “Anticonvulsant agents” (Eli Lilly and Company, priority 1985, dated 1987).

Turning to `Cc1cc(C(=O)NC(C)c2ccccc2)ccc1N` (racemic) [Example 12, (R,S)-4-amino-3-methyl-N-(1-phenylethyl)benzamide hydrochloride], it took a dose of 20 mg/kg to reach the 50% effect level in assay [1] (ED50).
`Cc1cc(C(=O)NC(C)c2ccccc2)cc(C)c1N` (racemic) [Example 22, (R,S)-4-amino-3,5-dimethyl-N-(1-phenylethyl)benzamide]: the 50% effect level in assay [1] (ED50) was put at a dose of 26.7 mg/kg.
With `Cc1ccccc1CNC(=O)c1cc(C)c(N)c(C)c1` [Example 13, 4-Amino-3,5-dimethyl-N-[(2-methylphenyl)methyl]benzamide], in assay [1], the ED50 (in general, the dose that gives a 50% effect, or the effect in half of the subjects) was 20 mg/kg.
Compound `Cc1cc(C(=O)Nc2c(C)cccc2C)ccc1N` [Example 14, 4-Amino-N-(2,6-dimethylphenyl)-3-methylbenzamide] had an ED50 in assay [1] of 3.8 mg/kg.
On the same count and under the same terms, under `Cc1cc(C(=O)Nc2c(C)cccc2C)cc(C)c1N` [Example 15, 4-Amino-N-(2,6-dimethylphenyl)-3,5-dimethylbenzamide] stands 5.6 mg/kg.
With `Cc1cc(C(=O)Nc2ccccc2C)ccc1N` [Example 16, 4-Amino-3-methyl-N-(2-methylphenyl)benzamide], the ED50 in assay [1] turned out to be 5.4 mg/kg.
Compound `Cc1cc(C(=O)NCc2ccccc2)cc(C)c1N` [Example 17, 4-Amino-3,5-dimethyl-N-benzylbenzamide] came in with an ED50 in assay [1] of 75 mg/kg.
The same measure, in the same setting: under `Cc1cc(C(=O)NCc2ccccc2C)ccc1N` [Example 18, 4-Amino-3-methyl-N-(2-methylbenzyl)benzamide] stands 16.3 mg/kg; under `Cc1cc(C(=O)NCc2ccccc2)ccc1N.Cl` [Example 19, 4-Amino-3-methyl-N-benzylbenzamide hydrochloride], 9.6 mg/kg; under `Cc1cc(C(=O)N[C@H](C)c2ccccc2)cc(C)c1N` [Example 20, (R)-4-amino-3,5-dimethyl-N-(1-phenylethyl)benzamide], 46.8 mg/kg.
Turning to `Cc1cc(C(=O)N[C@@H](C)c2ccccc2)cc(C)c1N` [Example 21, (S)-4-amino-3,5-dimethyl-N-(1-phenylethyl)benzamide], the ED50 in assay [1] worked out at 60.5 mg/kg.
Take `O=C1NC(=O)C(c2ccccc2)(c2ccccc2)N1` [phenytoin]: the “plasma level at which seizures are controlled” value with seizures was 10 µg/mL.
